# ChEMBL document CHEMBL1132691, “Structure-immunosuppressive activity relationships of new analogues of 15-deoxyspergualin. 2. Structural modifications of the spermidine moiety” (1999)
# How the values were obtained:
# Mus musculus [1] = assay: Tested in vivo against mouse graft-versus-host disease(GVHD) for survival (mean) after daily administration of 0.3 mg/kg (i.p.) using group of 8 mice/dose for 10 days.; format: functional; settings: route intraperitoneal
# Mus musculus [2] = assay: Tested in vivo against mouse graft-versus-host disease(GVHD) for survival (mean) after daily administration of 3 mg/kg (i.p.) using group of 8 mice/dose for 10 days.; format: functional; settings: route intraperitoneal
# Rattus norvegicus [3] = assay: The compound was tested in vivo against heart transplanted rat for survival (mean) after daily administration of 6 mg/kg(ip) for 10 days.; format: functional
# Rattus norvegicus [4] = assay: The compound was tested in vivo against heart transplanted rat for survival (mean) after daily administration of 2.5 mg/kg(ip) for 10 days.; format: functional
# Rattus norvegicus [5] = assay: The compound was tested in vivo against heart transplanted rat for survival (mean) after daily administration of 6 mg/kg(ip) for 10 days.
Compound,Mean survival (Mus musculus [1]),Mean survival (Mus musculus [2]),Mean survival (Rattus norvegicus [3]),Mean survival (Rattus norvegicus [4]),Mean survival (Rattus norvegicus [5])
NC(N)=NCCCCCCNC(=O)COC(=O)NCCCCNCCC(N)C(F)(F)F (configuration not stated),16 days,17 days,–,–,–
CC(CCN)NCCCCNC(=O)CC(=O)NCCCCCCN=C(N)N (configuration not stated),11 days,12 days,–,–,–
NCCCCNC(=O)OCC(=O)NCCCCCCN=C(N)N,14 days,14 days,–,–,–
CN(CCCN)CCCCNC(=O)CC(=O)NCCCCCCN=C(N)N,14 days,14 days,–,–,–
CCC(N)CCNCCCCNC(=O)OCC(=O)NCCCCCCN=C(N)N (configuration not stated),16 days,21 days,–,–,–
CC(C)(N)CCNCCCCNC(=O)CC(=O)NCCCCCCN=C(N)N,15 days,15 days,–,–,–
C[C@H](N)CCNCCCCNC(=O)CC(=O)NCCCCCCN=C(N)N,–,17 days,–,–,–
C[C@H](N)CCNCCCCNC(=O)OCC(=O)NCCCCCCN=C(N)N,16 days,25 days,9 days,–,–
CC(CN)CNCCCCNC(=O)CC(=O)NCCCCCCN=C(N)N (configuration not stated),18 days,18 days,–,–,–
CC(N)CCNCCCCNC(=O)OCC(=O)NCCCCCCN=C(N)N (configuration not stated),53 days,57 days,–,56 days,–
CC(N)CCNCCCCNC(=O)CC(=O)NCCCCCCN=C(N)N (configuration not stated),17 days,60 days,24 days,–,–
CC(CCCNCCCN)NC(=O)CC(=O)NCCCCCCN=C(N)N (configuration not stated),–,21 days,–,–,–
C[C@@H](N)CCNCCCCNC(=O)CC(=O)NCCCCCCN=C(N)N,26 days,49 days,68 days,–,–
CC(CCCNC(=O)CC(=O)NCCCCCCN=C(N)N)NCCCN (configuration not stated),11 days,14 days,–,–,–
NC(N)=NCCCCCCNC(=O)COC(=O)NCCCCNCCC(N)c1ccccc1 (configuration not stated),15 days,15 days,–,–,–
NCCCNCCCCNC(=O)CC(=O)NCCCCCCN=C(N)N,17 days,52 days,9 days,–,–
C[C@@H](N)CCNCCCCNC(=O)OCC(=O)NCCCCCCNC(=N)N [ANISPERIMUS],60 days,60 days,–,80 days,–
N=C(N)NCCCCCCC(=O)NC(O)C(=O)NCCCCNCCCN (configuration not stated) [GUSPERIMUS],–,–,–,–,38 days
N=C(N)NCCCCCCNC(=O)COC(=O)NCCCCNCCCN [TRESPERIMUS],15 days,58 days,–,16 days,–
